Measured values: paper PMC12298827, “Subchronic Toxicities of Four Per- and Polyfluoroalkyl Substances (PFASs) by Oral Exposure in Sprague–Dawley Rats” (Toxics, 2025)

System: male and female Sprague–Dawley rats
Assay: 90-day subchronic oral gavage toxicity study
Type: in vivo, rat
Parameters: key to NOEL, absolute liver weight increase / LOEL, absolute liver weight increase / NOEL, relative kidney weight increase / LOEL, relative kidney weight increase / NOEL, absolute kidney weight increase / LOEL, absolute kidney weight increase / NOEL, relative liver weight increase / LOEL, relative liver weight increase: NR: no response, no statistically significant dose-dependent changes
Outline: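 Rats dosed daily by oral gavage in corn oil (3 mL/kg) for 90 days, five dose levels plus control, n = 10/sex/group, euthanized SD 91. Endpoints: clinical observation, bodyweight, feed intake, FOB/locomotor activity, ophthalmology, terminal hematology, serum chemistry, coagulation, plasma parent PFAS, organ weights, histopathology. Groups vs control by ANOVA/Dunnett's (p<0.05).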

SMILES: FC(F)(F)C(F)(F)C(F)(F)C(F)(F)CCI [PFHI, 1H,1H,2H,2H-Perfluorohexyl iodide]
- Bodyweight (BW) and bodyweight gain (90-day, both sexes, all doses): None in females; dose-dependent reduced BW changes in males in all the dose groups, but BW gain on SDs 1-90 was not significantly affected
- Clinical observations (90-day, both sexes, all doses): None
- Coagulation endpoints (90-day, both sexes, all doses): Dose-dependent minimal prolongations in PT (in males at ≥12.5 mg/kg-day and in females at ≥25 mg/kg-day
- Feed consumption (90-day, both sexes, all doses): No changes in males; increased feed consumption in females at 25, 50, and 100 mg/kg-day but not at 200 mg/kg-day
- Functional observational battery (90-day, both sexes, all doses): No changes
- Gross lesions (90-day, both sexes, all doses): None considered as PFHI related
- Hematology (90-day, both sexes, all doses): Minimal decreases in reticulocytes in males at ≥50 mg/kg-day; minimal increases in MPV in females and sporadically in males at 200 mg/kg-day and in both sexes at 50 and 100 mg/kg-day
- Histopathology (90-day, both sexes, all doses): The kidney and liver ^5 of males at ≥100 mg/kg-day and the liver of females at 200 mg/kg-day
- Locomotor activity (90-day, both sexes, all doses): No effects
- Morbidity and mortality (90-day, both sexes, all doses): None
- Ophthalmology (90-day, both sexes, all doses): No ocular lesions
- Organ weight changes (90-day, both sexes, all doses): Mean absolute and/or relative dose-dependent organ weight increases in the liver of females at ≥100 mg/kg-day and males at ≥25 mg/kg-day and kidney weight increases only in males at ≥100 mg/kg-day ^5
- BMD10, absolute liver weight increase (female): 57.8 mg/kg-day
- BMDL, absolute liver weight increase (female): 8.1 mg/kg-day
- LOEL, absolute kidney weight increase (female): NR
- LOEL, absolute liver weight increase (female): 200 mg/kg-day
- LOEL, relative kidney weight increase (female): NR
- LOEL, relative liver weight increase (female): 100 mg/kg-day
- NOEL, absolute kidney weight increase (female): NR
- NOEL, absolute liver weight increase (female): 100 mg/kg-day
- NOEL, relative kidney weight increase (female): NR
- NOEL, relative liver weight increase (female): 50 mg/kg-day
- % BW Gain (female, 12.5 mg/kg-day): 61.51%
- % Diff, % BW Gain (female, 12.5 mg/kg-day): 1.61%
- % Diff, Total BW change (female, 12.5 mg/kg-day): 1.06%
- % Diff, Total Food Consumed (female, 12.5 mg/kg-day): 0.12%
- A/G (female, 12.5 mg/kg-day): 1.09±0.05 ratio
- ALB (female, 12.5 mg/kg-day): 4.28 ± 0.37 g/dL
- ALPi (female, 12.5 mg/kg-day): 42.8±13.0 U/L
- APTT (female, 12.5 mg/kg-day): 18.80 s
- BUN (female, 12.5 mg/kg-day): 16.8 ± 2.7 mg/dL
- CHOL (female, 12.5 mg/kg-day): 110.5 ± 32.7 mg/dL
- GLOB (female, 12.5 mg/kg-day): 3.94 ± 0.25 g/dL
- GLUC (female, 12.5 mg/kg-day): 138.0 ± 29.9 mg/dL
- HCT (female, 12.5 mg/kg-day): 46.90±1.85%
- HGB (female, 12.5 mg/kg-day): 14.91 ± 0.54 g/dL
- Kidney Weight (female, 12.5 mg/kg-day): 1.83 g
- Kidney/Body Weight (female, 12.5 mg/kg-day): 0.58%
- Kidney/Brain Weight (female, 12.5 mg/kg-day): 89.5%
- Liver Weight (female, 12.5 mg/kg-day): 8.53 g
- Liver/Body Weight (female, 12.5 mg/kg-day): 2.68%
- Liver/Brain Weight (female, 12.5 mg/kg-day): 416%
- MPV (female, 12.5 mg/kg-day): 7.10 ± 0.30 fL
- PT (female, 12.5 mg/kg-day): 13.34 s
- Total BW change (female, 12.5 mg/kg-day): 124.60 g
- Total Food Consumed (female, 12.5 mg/kg-day): 1474 g
- % BW Gain (female, 25 mg/kg-day): 60.67%
- % Diff, % BW Gain (female, 25 mg/kg-day): 0.22%
- % Diff, Total BW change (female, 25 mg/kg-day): 1.70%
- % Diff, Total Food Consumed (female, 25 mg/kg-day): 7.27%
- A/G (female, 25 mg/kg-day): 1.07±0.11 ratio
- ALB (female, 25 mg/kg-day): 4.02 ± 0.39 g/dL
- ALPi (female, 25 mg/kg-day): 54.9±21.9 U/L
- APTT (female, 25 mg/kg-day): 18.59 s
- BUN (female, 25 mg/kg-day): 16.2 ± 2.1 mg/dL
- CHOL (female, 25 mg/kg-day): 114.9 ± 14.1 mg/dL
- GLOB (female, 25 mg/kg-day): 3.78 ± 0.16 g/dL
- GLUC (female, 25 mg/kg-day): 153.4 ± 30.6 mg/dL
- HCT (female, 25 mg/kg-day): 48.01±1.96%
- HGB (female, 25 mg/kg-day): 15.38 ± 0.54 g/dL
- Kidney Weight (female, 25 mg/kg-day): 1.83 g
- Kidney/Body Weight (female, 25 mg/kg-day): 0.57%
- Kidney/Brain Weight (female, 25 mg/kg-day): 88.2%
- Liver Weight (female, 25 mg/kg-day): 8.66 g
- Liver/Body Weight (female, 25 mg/kg-day): 2.71%
- Liver/Brain Weight (female, 25 mg/kg-day): 417%
- MPV (female, 25 mg/kg-day): 7.32 ± 0.30 fL
- PT (female, 25 mg/kg-day): 13.51 s
- Total BW change (female, 25 mg/kg-day): 125.38 g
- Total Food Consumed (female, 25 mg/kg-day): 1579 g
- % BW Gain (female, 50 mg/kg-day): 65.42%
- % Diff, % BW Gain (female, 50 mg/kg-day): 8.07%
- % Diff, Total BW change (female, 50 mg/kg-day): 7.25%
- % Diff, Total Food Consumed (female, 50 mg/kg-day): 8.31%
- A/G (female, 50 mg/kg-day): 1.09±0.09 ratio
- ALB (female, 50 mg/kg-day): 4.27 ± 0.46 g/dL
- ALPi (female, 50 mg/kg-day): 43.7±5.5 U/L
- APTT (female, 50 mg/kg-day): 20.46 s
- BUN (female, 50 mg/kg-day): 15.7 ± 2.2 mg/dL
- CHOL (female, 50 mg/kg-day): 119.7 ± 25.4 mg/dL
- GLOB (female, 50 mg/kg-day): 3.91 ± 0.26 g/dL
- GLUC (female, 50 mg/kg-day): 157.1 ± 16.7 mg/dL
- HCT (female, 50 mg/kg-day): 47.80±2.45%
- HGB (female, 50 mg/kg-day): 15.23 ± 0.72 g/dL
- Kidney Weight (female, 50 mg/kg-day): 1.85 g
- Kidney/Body Weight (female, 50 mg/kg-day): 0.57%
- Kidney/Brain Weight (female, 50 mg/kg-day): 93.9%
- Liver Weight (female, 50 mg/kg-day): 8.92 g
- Liver/Body Weight (female, 50 mg/kg-day): 2.76%
- Liver/Brain Weight (female, 50 mg/kg-day): 454%
- MPV (female, 50 mg/kg-day): 7.47 ± 0.44 fL
- PT (female, 50 mg/kg-day): 13.48 s
- Total BW change (female, 50 mg/kg-day): 132.23 g
- Total Food Consumed (female, 50 mg/kg-day): 1595 g
- % BW Gain (female, 100 mg/kg-day): 62.41%
- % Diff, % BW Gain (female, 100 mg/kg-day): 3.09%
- % Diff, Total BW change (female, 100 mg/kg-day): 5.03%
- % Diff, Total Food Consumed (female, 100 mg/kg-day): 13.5%
- A/G (female, 100 mg/kg-day): 1.08±0.06 ratio
- ALB (female, 100 mg/kg-day): 4.32 ± 0.36 g/dL
- ALPi (female, 100 mg/kg-day): 49.7±18.4 U/L
- APTT (female, 100 mg/kg-day): 17.57 s
- BUN (female, 100 mg/kg-day): 16.7 ± 2.6 mg/dL
- CHOL (female, 100 mg/kg-day): 122.7 ± 15.6 mg/dL
- GLOB (female, 100 mg/kg-day): 4.00 ± 0.27 g/dL
- GLUC (female, 100 mg/kg-day): 153.8 ± 19.2 mg/dL
- HCT (female, 100 mg/kg-day): 46.45±1.01%
- HGB (female, 100 mg/kg-day): 14.77 ± 0.32 g/dL
- Kidney Weight (female, 100 mg/kg-day): 1.84 g
- Kidney/Body Weight (female, 100 mg/kg-day): 0.58%
- Kidney/Brain Weight (female, 100 mg/kg-day): 89.7%
- Liver Weight (female, 100 mg/kg-day): 9.17 g
- Liver/Body Weight (female, 100 mg/kg-day): 2.85%
- Liver/Brain Weight (female, 100 mg/kg-day): 447%
- MPV (female, 100 mg/kg-day): 7.34 ± 0.51 fL
- PT (female, 100 mg/kg-day): 13.79 s
- Total BW change (female, 100 mg/kg-day): 129.49 g
- Total Food Consumed (female, 100 mg/kg-day): 1671 g
- % BW Gain (female, 200 mg/kg-day): 53.53%
- % Diff, % BW Gain (female, 200 mg/kg-day): -11.58%
- % Diff, Total BW change (female, 200 mg/kg-day): -11.94%
- % Diff, Total Food Consumed (female, 200 mg/kg-day): 6.33%
- A/G (female, 200 mg/kg-day): 1.15±0.03 ratio
- ALB (female, 200 mg/kg-day): 4.69 ± 0.33 g/dL
- ALPi (female, 200 mg/kg-day): 46.9±15.3 U/L
- APTT (female, 200 mg/kg-day): 19.34 s
- BUN (female, 200 mg/kg-day): 18.0 ± 3.3 mg/dL
- CHOL (female, 200 mg/kg-day): 154.8 ± 35.9 mg/dL
- GLOB (female, 200 mg/kg-day): 4.10 ± 0.33 g/dL
- GLUC (female, 200 mg/kg-day): 155.2 ± 21.4 mg/dL
- HGB (female, 200 mg/kg-day): 14.58 ± 0.80 g/dL
- Kidney Weight (female, 200 mg/kg-day): 1.83 g
- Kidney/Body Weight (female, 200 mg/kg-day): 0.61%
- Kidney/Brain Weight (female, 200 mg/kg-day): 91.3%
- Liver Weight (female, 200 mg/kg-day): 9.65 g
- Liver/Body Weight (female, 200 mg/kg-day): 3.20%
